Measured values as given in PubChem BioAssay AID1963974 (Molecular Pharmacology Branch, DTP, NCI, 2024).

Tested on: 648629-189-R-J1-PDC spheroids with HUVEC/MSC, viability
Assay: Anticancer human tumor 648629-189-R-J1-PDC patient-derived bladder carcinoma cell line growth inhibition [PI3K]
Conditions: for IC50: curve of first compound; for viability, T/C: stronger effect = lower value
Text: Combinatorial screen of targeted agents with the PI3K inhibitors inavolisib, alpelisib, duvelisib, and copanlisib in multi-cell type tumor spheroids
A high-throughput screen of multi-cell type tumor spheroids was designed to identify active combinations of targeted small molecules and PI3K pathway inhibitors. Complex spheroids include a stromal component modeled by human endothelial cells (HUVEC) and fibroblasts modeled by human mesenchymal stem cells (MSCs). The concentration ranges selected for each drug and investigational agent were based upon clinically achievable concentrations if the clinical Cmax of the agent was known.
Compounds. The drugs and investigational agents: inavolisib (NSC800729), alpelisib (NSC765974), duvelisib (NSC772469), copanlisib (NSC816437), ipatasertib (NSC767898), afuresertib (NSC778305), talazoparib (NSC767125), sapanisertib (NSC764658), selumetinib (NSC741078), tovorafenib (DAY101, NSC766906), vemurafenib (NSC761431), ravoxertinib (NSC781343), sotorasib (NSC818433), MRTX1133 (NSC 836407), abemaciclib (NSC 768073), palbociclib (NSC758247), venetoclax (NSC 766270), SY5609 (NSC837396), enzalutamide (NSC755605), and darolutamide (NSC825331), were obtained from the National Cancer Institute (NCI) Developmental Therapeutics Program Chemical Repository. The FDA-approved anticancer drug set is available from the NCI Developmental Therapeutics Program. […] The stock solutions were prepared in dimethyl sulfoxide (DMSO, Sigma-Aldrich, St. Louis, MO, cat. D2650) at 800-fold the tested concentration and stored at -70 degrees C prior to their use. All drugs and investigational agents were tested over a range starting from a high concentration at or near the clinical Cmax and decreasing in half-log increments. If the clinical Cmax for an agent had not been determined, the highest concentration tested was 10 microM.
Cell Culture. All cells were maintained in an incubator at 37 degrees C and 5% CO2 with 95% humidity. The PDC lines were cultured according to standard operating procedures established by the NCI PDMR (https://pdmr.cancer.gov/sops/default.htm). All PDCs were thawed and cultured in Matrigel-coated flasks prepared with a working solution of 1X Ham's F-12 nutrient mix, without supplementation (Invitrogen, Waltham, MA, cat. 11765054), 100 U/mL penicillin-streptomycin (Invitrogen, cat. 15140122), and 2.5% Matrigel (Corning Inc., Corning, NY, cat. 354248) for the first three passages. The 354836-022-R-J1-PDC, 475296-252-R-J1-PDC, and 997726-040-R-J2-PDC lines were cultured in 6A media, which includes advanced DMEM/F-12 (Thermo Fisher Scientific, cat. 12634028), 10 mM HEPES (Thermo Fisher Scientific, cat. 15630080), 1X GlutaMAX supplement (Thermo Fisher Scientific, cat. 35050061), 0.1 mg/mL primocin (InvivoGen, San Diego, CA, cat. ant-pm-2), 10% defined fetal bovine serum, heat inactivated (HyClone Laboratories Inc., Logan, UT, cat. SH30070.03HI), 50% L-WRN conditioned media (ATCC, cat. CRL-3276), 1.25 mM N-Acetyl-L-cysteine (Sigma-Aldrich, cat. A9165), 10 mM nicotinamide (Sigma-Aldrich, cat. N0636), 1X B-27 supplement (Thermo Fisher Scientific, cat. 17504044), 1X N-2 supplement (Thermo Fisher Scientific, cat. 17502048), and 10 microM Y-27632 dihydrochloride (Tocris Bioscience, Bristol, United Kingdom, cat. 1254). The 624824-186-R-J2-PDC line was cultured in 6C/Colon 1B media, which includes all 6A media components plus 50 ng/mL human EGF recombinant protein (Thermo Fisher Scientific, cat. PHG0311). […]
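Further: spheroids exposed to agents for seven days before reading.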
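Wherever viability, T/C is given: percent of vehicle control luminescence where 100% = DMSO treated spheroids.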

Question: `CC(=O)c1c(C)c2cnc(Nc3ccc(N4CCNCC4)cn3)nc2n(C2CCCC2)c1=O` + CC(Nc1ccc2c(c1)OCCn1cc(N3C(=O)OCC3C(F)F)nc1-2)C(N)=O was tested. Which IC50 (second compound 0.00316 µM) did it give?
Answer: > 100 nM

Question: And the IC50 (second compound 0.01 µM)?
Answer: > 100 nM

Question: And the IC50 (second compound 0.0316 µM)?
Answer: > 100 nM

Question: What about the IC50 (second compound 0.1 µM) of the same molecule?
Answer: > 100 nM

Question: And the IC50 (second compound 0.316 µM)?
Answer: > 100 nM

Question: And the IC50 (second compound 1 µM)?
Answer: > 100 nM

Question: What about the viability, T/C (second compound 0.00316 µM, first compound 0.000316 µM) of the same molecule?
Answer: 102%

Question: What about the viability, T/C (second compound 0.00316 µM, first compound 0.001 µM) of the same molecule?
Answer: 103%

Question: And the viability, T/C (second compound 0.00316 µM, first compound 0.00316 µM)?
Answer: 105%

Question: What about the viability, T/C (second compound 0.00316 µM, first compound 0.01 µM) of the same molecule?
Answer: 95.5%

Question: And the viability, T/C (second compound 0.00316 µM, first compound 0.0316 µM)?
Answer: 108%

Question: And the viability, T/C (second compound 0.00316 µM, first compound 0.1 µM)?
Answer: 112%

Question: What about the viability, T/C (second compound 0.01 µM, first compound 0.000316 µM) of the same molecule?
Answer: 101%

Question: What about the viability, T/C (second compound 0.01 µM, first compound 0.001 µM) of the same molecule?
Answer: 103%

Question: What about the viability, T/C (second compound 0.01 µM, first compound 0.00316 µM) of the same molecule?
Answer: 88%

Question: And the viability, T/C (second compound 0.01 µM, first compound 0.01 µM)?
Answer: 99.4%

Question: And the viability, T/C (second compound 0.01 µM, first compound 0.0316 µM)?
Answer: 98.9%

Question: What about the viability, T/C (second compound 0.01 µM, first compound 0.1 µM) of the same molecule?
Answer: 104%

Question: And the viability, T/C (second compound 0.0316 µM, first compound 0.000316 µM)?
Answer: 88.5%

Question: And the viability, T/C (second compound 0.0316 µM, first compound 0.001 µM)?
Answer: 105%

Question: What about the viability, T/C (second compound 0.0316 µM, first compound 0.00316 µM) of the same molecule?
Answer: 95.9%

Question: What about the viability, T/C (second compound 0.0316 µM, first compound 0.01 µM) of the same molecule?
Answer: 99.9%

Question: What about the viability, T/C (second compound 0.0316 µM, first compound 0.0316 µM) of the same molecule?
Answer: 97.4%

Question: And the viability, T/C (second compound 0.0316 µM, first compound 0.1 µM)?
Answer: 96.4%

Question: What about the viability, T/C (second compound 0.1 µM, first compound 0.000316 µM) of the same molecule?
Answer: 104%

Question: What about the viability, T/C (second compound 0.1 µM, first compound 0.001 µM) of the same molecule?
Answer: 92.1%

Question: What about the viability, T/C (second compound 0.1 µM, first compound 0.00316 µM) of the same molecule?
Answer: 82.8%

Question: And the viability, T/C (second compound 0.1 µM, first compound 0.01 µM)?
Answer: 88.3%

Question: What about the viability, T/C (second compound 0.1 µM, first compound 0.0316 µM) of the same molecule?
Answer: 96.2%

Question: And the viability, T/C (second compound 0.1 µM, first compound 0.1 µM)?
Answer: 102%

Question: And the viability, T/C (second compound 0.316 µM, first compound 0.000316 µM)?
Answer: 81.5%

Question: What about the viability, T/C (second compound 0.316 µM, first compound 0.001 µM) of the same molecule?
Answer: 87.2%

Question: What about the viability, T/C (second compound 0.316 µM, first compound 0.00316 µM) of the same molecule?
Answer: 85%

Question: What about the viability, T/C (second compound 0.316 µM, first compound 0.01 µM) of the same molecule?
Answer: 82.4%

Question: What about the viability, T/C (second compound 0.316 µM, first compound 0.0316 µM) of the same molecule?
Answer: 76.4%

Question: What about the viability, T/C (second compound 0.316 µM, first compound 0.1 µM) of the same molecule?
Answer: 94.5%

Question: And the viability, T/C (second compound 1 µM, first compound 0.000316 µM)?
Answer: 67%

Question: What about the viability, T/C (second compound 1 µM, first compound 0.001 µM) of the same molecule?
Answer: 65.7%

Question: What about the viability, T/C (second compound 1 µM, first compound 0.00316 µM) of the same molecule?
Answer: 78.4%

Question: What about the viability, T/C (second compound 1 µM, first compound 0.01 µM) of the same molecule?
Answer: 80%

Question: What about the viability, T/C (second compound 1 µM, first compound 0.0316 µM) of the same molecule?
Answer: 63.4%

Question: And the viability, T/C (second compound 1 µM, first compound 0.1 µM)?
Answer: 71.2%
